In ChEMBL document CHEMBL3817803, “Design, Synthesis, and Evaluation of Donepezil-Like Compounds as AChE and BACE-1 Inhibitors” (ACS Med Chem Lett, 2016):
Activity calls are given as the source filed them. No cut-off for these calls is given here.

What was measured:
[1] = target: Cholinesterase (Equus caballus) (UniProt P81908); experiment: Inhibition of horse serum BuChE using butyrylthiocholine iodide as substrate at 2 uM incubated for 20 mins by Ellman method
Cholinesterase [2] = target: T1, Cholinesterase (Equus caballus, UniProt P81908); experiment: Inhibition of horse serum BuChE using butyrylthiocoline iodide as substrate incubated for 20 mins by Ellman method
T1 sequence (P81908 whole entry): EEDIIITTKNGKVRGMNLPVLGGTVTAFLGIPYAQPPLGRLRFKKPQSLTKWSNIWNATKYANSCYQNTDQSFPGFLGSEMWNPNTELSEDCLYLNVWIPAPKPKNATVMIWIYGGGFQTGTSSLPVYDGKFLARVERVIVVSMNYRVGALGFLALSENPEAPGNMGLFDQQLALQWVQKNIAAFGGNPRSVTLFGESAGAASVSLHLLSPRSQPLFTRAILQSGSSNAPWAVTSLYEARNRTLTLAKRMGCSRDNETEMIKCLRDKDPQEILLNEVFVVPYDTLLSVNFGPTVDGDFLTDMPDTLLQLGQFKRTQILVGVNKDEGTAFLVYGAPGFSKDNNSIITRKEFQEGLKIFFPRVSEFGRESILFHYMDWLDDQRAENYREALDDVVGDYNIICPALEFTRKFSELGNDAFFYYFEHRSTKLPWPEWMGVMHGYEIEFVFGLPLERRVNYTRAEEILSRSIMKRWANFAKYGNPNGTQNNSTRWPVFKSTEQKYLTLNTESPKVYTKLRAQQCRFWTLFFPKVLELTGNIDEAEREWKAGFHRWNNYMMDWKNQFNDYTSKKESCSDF

Cholinesterase [3] = target: T1, Cholinesterase; experiment: Non-competitive inhibition of horse serum BuChE using butyrylthiocoline iodide as substrate incubated for 20 mins by Lineweaver-Burk plot analysis
[4] = target: Beta-secretase 1 (Mus musculus) (UniProt P56818); experiment: Inhibition of mouse BACE-1 at 1 uM preincubated for 10 mins followed by fluorescent peptide substrate addition measured for 30 mins by fluorescence plate reader method
Sequence of Beta-secretase 1 (Mus musculus) (P56818 whole entry): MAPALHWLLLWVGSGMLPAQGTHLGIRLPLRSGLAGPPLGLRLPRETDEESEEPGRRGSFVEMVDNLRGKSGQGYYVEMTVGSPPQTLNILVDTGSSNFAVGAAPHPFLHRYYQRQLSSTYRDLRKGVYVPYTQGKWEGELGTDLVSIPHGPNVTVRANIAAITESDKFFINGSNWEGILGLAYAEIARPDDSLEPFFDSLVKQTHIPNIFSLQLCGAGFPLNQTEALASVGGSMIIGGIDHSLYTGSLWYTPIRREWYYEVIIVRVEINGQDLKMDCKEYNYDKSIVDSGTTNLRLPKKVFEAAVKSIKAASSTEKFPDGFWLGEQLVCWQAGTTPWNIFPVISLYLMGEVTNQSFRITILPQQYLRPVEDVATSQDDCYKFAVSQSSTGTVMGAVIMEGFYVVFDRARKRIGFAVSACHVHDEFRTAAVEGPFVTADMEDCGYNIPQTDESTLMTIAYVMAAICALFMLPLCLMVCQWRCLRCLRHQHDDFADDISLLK

[5] = target: Cholinesterase (Equus caballus) (UniProt P81908); experiment: Inhibition of horse serum BuChE using butyrylthiocoline iodide as substrate at 2 uM preincubated for 20 mins followed by 100 fold dilution by Ellman method
Acetylcholinesterase [6] = target: T2, Acetylcholinesterase (Homo sapiens, UniProt P22303); experiment: Inhibition of human erythrocytes AchE using acetylthiocholine iodide as substrate incubated for 20 mins by Ellman method
T2 sequence (P22303 whole entry): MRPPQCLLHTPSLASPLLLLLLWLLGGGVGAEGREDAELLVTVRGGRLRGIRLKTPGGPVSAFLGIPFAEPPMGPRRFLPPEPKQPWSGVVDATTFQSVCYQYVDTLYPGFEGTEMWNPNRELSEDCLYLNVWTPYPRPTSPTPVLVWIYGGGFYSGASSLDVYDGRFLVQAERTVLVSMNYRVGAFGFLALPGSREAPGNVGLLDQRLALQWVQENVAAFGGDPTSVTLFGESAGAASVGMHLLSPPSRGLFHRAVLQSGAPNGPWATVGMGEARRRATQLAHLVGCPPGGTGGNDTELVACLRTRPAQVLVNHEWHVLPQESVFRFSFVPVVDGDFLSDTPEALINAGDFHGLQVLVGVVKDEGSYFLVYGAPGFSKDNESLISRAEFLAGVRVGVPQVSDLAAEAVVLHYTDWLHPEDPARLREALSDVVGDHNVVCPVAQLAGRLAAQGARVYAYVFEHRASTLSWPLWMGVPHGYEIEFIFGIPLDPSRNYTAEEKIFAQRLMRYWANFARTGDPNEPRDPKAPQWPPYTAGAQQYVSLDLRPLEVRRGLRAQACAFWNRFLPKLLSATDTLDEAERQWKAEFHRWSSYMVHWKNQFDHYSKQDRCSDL

Acetylcholinesterase [7] = target: T2, Acetylcholinesterase; experiment: Non-competitive inhibition of human erythrocytes AchE using acetylthiocholine iodide as substrate incubated for 20 mins by Lineweaver-Burk plot analysis
[8] = Selectivity ratio of Ki for horse serum BuChE to Ki for human erythrocytes AchE
[9] = Selectivity ratio of IC50 for horse serum BuChE to IC50 for human erythrocytes AchE
Beta-secretase 1 = Beta-secretase 1 (Mus musculus, UniProt P56818); experiment: Inhibition of mouse BACE-1 preincubated for 10 mins followed by fluorescent peptide substrate addition measured for 30 mins by fluorescence plate reader method
Sequence of Beta-secretase 1 (P56818 whole entry): as the sequence (P56818 whole entry) above

Cholinesterase [10] = target: T1, Cholinesterase; experiment: Mixed inhibition of horse serum BuChE using butyrylthiocoline iodide as substrate incubated for 20 mins by Lineweaver-Burk plot analysis
Acetylcholinesterase [11] = target: T2, Acetylcholinesterase
Description: Mixed inhibition of human erythrocytes AchE using acetylthiocholine iodide as substrate incubated for 20 mins by Lineweaver-Burk plot analysis

Sequence of Cholinesterase (Equus caballus) (P81908 whole entry): as the sequence (P81908 whole entry) above

| SMILES | inhibition [1] | IC50 (Cholinesterase [2]) [nM] | Ki (Cholinesterase [3]) [nM] | inhibition [4] | inhibition [5] | IC50 (Acetylcholinesterase [6]) [nM] | Ki (Acetylcholinesterase [7]) [nM] | Ratio Ki [8] | Ratio IC50 [9] | IC50 (Beta-secretase 1) [nM] | Ki (Cholinesterase [10]) [nM] | Ki (Acetylcholinesterase [11]) [nM] |
| --- | --- | --- | --- | --- | --- | --- | --- | --- | --- | --- | --- | --- |
| COc1ccc2c(c1)C(=O)/C(=C/C1CCN(Cc3ccc4c(c3)OCO4)CC1)C2 | inactive | 9820 | 4330 | inactive | Active | – | – | – | – | – | – | – |
| COc1cc2c(cc1O)C/C(=C\C1CCN(Cc3ccccc3)CC1)C2=O | inactive | 7350 | 10600 | – | Active | 1540 | 2820 | 4 | 5 | – | – | – |
| COc1cccc(CN2CCC(/C=C3\Cc4cc(OC)ccc4C3=O)CC2)c1 | inactive | 2170 | 3490 | Active | Active | 853 | 554 | 6 | 3 | < 1000 | – | – |
| COc1cccc(CN2CCC(/C=C3\Cc4ccc(OC)cc4C3=O)CC2)c1 | inactive | 1620 | 3890 | – | Active | 34500 | 119000 | < 1 | < 1 | – | – | – |
| COc1ccc2c(c1)C(=O)/C(=C/C1CCN(Cc3ccccc3)CC1)C2 | inactive | 2650 | – | – | Active | 342 | 260 | 4 | 8 | – | 1140 | – |
| COc1cccc2c1C(=O)/C(=C/C1CCN(Cc3ccc4c(c3)OCO4)CC1)C2 | inactive | 4820 | 6440 | inactive | Active | – | – | – | – | – | – | – |
| COc1cc2c(cc1O)C(=O)/C(=C/C1CCN(Cc3ccccc3)CC1)C2 | inactive | 7350 | 10600 | – | Active | 1540 | 2820 | 4 | 5 | – | – | – |
| COc1cccc2c1C(=O)/C(=C/C1CCN(Cc3ccccc3)CC1)C2 | inactive | 1140 | – | – | Active | 1510 | 1830 | 2 | 1 | – | 3100 | – |
| O=C1/C(=C/C2CCN(Cc3ccccc3)CC2)Cc2cccc(O)c21 | inactive | 4760 | – | Active | Active | 636 | 355 | 18 | 7 | < 1000 | 6480 | – |
| COc1cccc(CN2CCC(/C=C3\Cc4cccc(OC)c4C3=O)CC2)c1 | inactive | 5410 | 2380 | – | Active | 12200 | 17200 | < 1 | < 1 | – | – | – |
| O=C1/C(=C/C2CCN(Cc3ccccc3)CC2)Cc2ccc(O)cc21 | inactive | 5800 | 5610 | – | Active | 1500 | 4220 | 1 | 4 | – | – | – |
| COc1ccc2c(c1)C/C(=C\C1CCN(Cc3ccccc3)CC1)C2=O | inactive | 5730 | 3140 | Active | Active | 43 | 29 | 110 | 132 | < 1000 | – | – |
| O=C1/C(=C/C2CCN(Cc3ccccc3)CC2)Cc2cc3c(cc21)OCO3 | inactive | 15100 | 7250 | Active | Active | 755 | – | 7 | 20 | < 1000 | – | 980 |
| COc1cc2c(cc1OC)C(=O)/C(=C/C1CCN(Cc3ccccc3)CC1)C2 | inactive | 4740 | – | Active | Active | 58 | 35 | 71 | 81 | < 1000 | 2440 | – |
| O=C1/C(=C/C2CCN(Cc3ccccc3)CC2)Cc2cc(O)ccc21 | inactive | 7590 | – | Active | Active | 2160 | 1980 | 4 | 4 | < 1000 | 8460 | – |
